Measurements: patent US20030175254A1, “Method of obtaining purified enterochromaffin cells and methods of using same” (priority 2001, published 2003)

Tested on: Intestinal EC Cells
Test: Serotonin release from cultured rat intestinal (ileal) EC cell fractions, serotonin EIA
Assay type: cell-based
Conditions: 60 minutes, 100,000 cells cultured overnight
Description: Male Sprague-Dawley rats (n=5 per preparation) were euthanized and the ileum was completely removed and divided into 2-3 pieces. Following end-ligation, these pieces of intestine were everted and filled with an enzyme mix of Pronase E (0.7 mg/mL), and collagenase (0.25 mg/ml). Cells were separated from the muscularis by alternative switching between a calcium containing Respiration medium and a 2 mM EDTA-containing digestive medium (with shaking). A total of 1-2×10^8 cells were obtained from each preparation. Five fractions of cells (F1-F5) were separated by counterflow-elutriation using flow rates of 25 ml/min at 2,500 rpm. Cells (100,000) were cultured overnight in Dulbecco's modified Eagles medium (DMEM)-F12 medium supplemented with 2 mg/ml bovine serum albumin, 5% fetal bovine serum, 5 mg/l gentamicin, 5 mg/l insulin, 5 mg/l transferring, 5 μg/l sodium selenite, and 1 nM hydrocortisone). After removal of the medium, fresh culture medium containing agonists (PACAP, galanin, forskolin, each at 10 nM) was added to the cells for 60 minutes. This medium was removed and the serotonin measured using an serotonin EIA kit and expressed as ng serotonin/100,000 cells/60 min.

| Compound | serotonin release versus controls (10^-8 M, negatively regulated serotonin release) | serotonin release, fold versus controls (agonist 10 nM, positive control, p<0.05) [fold] |
| --- | --- | --- |
| pituitary adenylate cyclase stimulating peptide [PACAP] | 0.88±0.06 |  |
| C=C[C@@]1(C)CC(=O)[C@]2(O)[C@@]3(C)[C@@H](O)CCC(C)(C)[C@@H]3[C@H](O)[C@H](OC(C)=O)[C@@]2(C)O1 [Forskolin] |  | 2.1±0.14 |
